System: cholesterol absorption (uptake of 14C-cholesterol by the liver)
Experiment: Cholesterol absorption test: uptake of 14C-cholesterol by the liver after peroral test meal
Type: in vivo, NMRI mice
Settings: dose at which uptake of 14C-cholesterol by the liver was halved (50%) vs control group, mouse
Excerpt: Effect of the compounds of the invention on cholesterol absorption and 3H-taurocholic acid excretion using fecal excrement of mice, rats or hamsters
NMRI mice, Wistar rats, or Golden Syrian hamsters (in groups of n=4-6) were kept in metabolic cages, where they were fed with a standard diet (Altromin, Lage (Lippe)). The afternoon prior to the administration of the radioactive tracers (14C-cholesterol), the feed was removed and the animals were adapted to grates.
Additionally, the animals were labeled s.c. with 3H-TCA (taurocholic acid) (for example 1 μCi/mouse up to 5 μCi/rat) 24 hours prior to the peroral administration of the test meal (14C-cholesterol in Intralipid® 20, Pharmacia-Upjohn).
Cholesterol absorption test: 0.25 ml/mouse Intralipid®D 20 (Pharmacia-Upjohn) ((spiked with 0.25 μCi of 14C-cholesterol in 0.1 mg of cholesterol) was administered perorally by gavage.
Test substances were prepared separately in 0.5% methylcellulose (Sigma)/5% Solutol (BASF, Ludwigshafen) or a suitable vehicle.
The administration volume of the test substance was 0.5 ml/mouse. The test substance was administered immediately prior to the test meal (Intralipid labeled with 14C-cholesterol) (cholesterol absorption test).
The feces were collected over a period of 24 h. Fecal elimination of 14C-cholesterol and 3H-taurocholic acid (TCA) was determined after 24 hours.
The livers were removed and homogenized, and aliquots were incinerated in an oximate (Model 307, Packard) to determine the amount of 14C-cholesterol that had been taken up/absorbed.
The amount of-14C-cholesterol taken up by the liver was based on the administered dose. The ED50 values were interpolated from a dose-effect curve as the dose at which the uptake of 14C-cholesterol by the liver was halved (50%), based on a control group.

SMILES	ED50 (liver)
O=C1C(CCC(O)c2ccc(F)cc2)C(c2ccc(OCCCCNCCCCCCOP(=O)(O)O)cc2)N1c1ccc(F)cc1 (stereo not shown) [IV, Phosphoric acid mono{6-[4-(4-{1-(4-fluorophenyl)-3-[3-(4-fluorofluorophenyl)-3-hydroxypropyl]-4-oxoazetidin-2-yl}phenoxy)butylamino]hexyl}ester]	0.3 mg/mouse
COc1ccc(C2C(CCC(O)c3ccc(F)cc3)C(=O)N2c2ccc(CNC(=O)CS(=O)(=O)O)cc2)cc1 (stereo not shown) [IX, {4-[3-[3-(4-Fluorophenyl)-3-hydroxypropyl]-2-(4-methoxyphenyl)-4-oxoazetidin-1-yl]benzylcarbamoyl}methanesulfonic acid]	<1.0 mg/mouse
O=C(O)CCC(=O)NCc1ccc(C2C(CCC(O)c3ccc(F)cc3)C(=O)N2c2ccc(F)cc2)cc1 (stereo not shown) [X, N-(4-{1-(4-Fluorophenyl)-3-[3-(4-fluorophenyl)-3-hydroxypropyl]-4-oxoazetidin-2-yl}benzyl)succinaminic acid]	<1.0 mg/mouse
COc1ccc(C2C(CCC(O)c3ccc(F)cc3)C(=O)N2c2ccc(CNCCCCS(=O)(=O)O)cc2)cc1 (stereo not shown) [I, 4-{4-[3-[3-(4-Fluorophenyl)-3-hydroxypropyl]-2-(4-methoxyphenyl)-4-oxoazetidin-1-yl]benzylamino}butane-1-sulfonic acid]	1.0 mg/mouse
O=C(CS(=O)(=O)O)NCc1ccc(C2C(CCC(O)c3ccc(F)cc3)C(=O)N2c2ccc(F)cc2)cc1 (stereo not shown) [VIII, (4-{1-(4-Fluorophenyl)-3-[3-(4-fluorophenyl)-3-hydroxypropyl]-4-oxoazetidin-2-yl}benzylcarbamoyl)methanesulfonic acid]	0.3 mg/mouse
COc1ccc(C2C(CCC(O)c3ccc(F)cc3)C(=O)N2c2ccc(OCCCCN(C)CCS(=O)(=O)O)cc2)cc1 (stereo not shown) [II, 2-[(4-{4-[3-[3-(4-Fluorophenyl)-3-hydroxypropyl]-2-(4-methoxyphenyl)-4-oxoazetidin-1-yl]phenoxy}butyl)methylamino]ethylsulfonic acid]	>0.1 mg/mouse
COc1ccc(C2C(CCC(O)c3ccc(F)cc3)C(=O)N2c2ccc(CNC(=O)CCCCCCCCCCC(=O)O)cc2)cc1 (stereo not shown) [XIII, 11-{4-[3-[3-(4-Fluorophenyl)-3-hydroxypropyl]-2-(4-methoxyphenyl)-4-oxoazetidin-1-yl]benzylcarbamoyl}undecanoic acid]	<0.1 mg/mouse

From US7388004B2, “Acid-group-substituted diphenylazetidinones, process for their preparation, medicaments comprising these compounds, and their use” (Sanofi-Aventis Deutschland GmbH, priority 2002, dated 2008)
